Legend:
CB1 (rCB1) [1] = target: T1, CB1 (rCB1) (Rattus norvegicus, UniProt P20272); experiment: Single-point radioligand displacement screen; format: binding; details: 10 µM, 1 µM or 300 nM by cell colour (not visible)
CB1 (rCB1) [2] = target: T1, CB1 (rCB1); experiment: Radioligand competition binding, [3H]-CP-55,940, rat brain membranes; details: rCB1

T1 sequence (P20272 whole entry): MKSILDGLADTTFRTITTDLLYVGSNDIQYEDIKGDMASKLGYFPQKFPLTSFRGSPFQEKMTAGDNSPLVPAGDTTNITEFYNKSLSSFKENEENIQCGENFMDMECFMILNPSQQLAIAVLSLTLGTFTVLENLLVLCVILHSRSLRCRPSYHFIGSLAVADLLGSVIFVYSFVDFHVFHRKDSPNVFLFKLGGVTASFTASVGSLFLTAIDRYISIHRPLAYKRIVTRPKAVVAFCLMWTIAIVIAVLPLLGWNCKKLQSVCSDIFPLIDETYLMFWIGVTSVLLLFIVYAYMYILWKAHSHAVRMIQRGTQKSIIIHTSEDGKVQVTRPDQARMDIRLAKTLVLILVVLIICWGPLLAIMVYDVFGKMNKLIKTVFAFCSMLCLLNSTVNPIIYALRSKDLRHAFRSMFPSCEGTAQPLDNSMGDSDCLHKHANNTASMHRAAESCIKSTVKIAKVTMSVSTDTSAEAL

SMILES: COC(=O)C(NC(=O)c1cc(C)n(-c2cccc(C#N)c2)n1)c1ccsc1 (centres unmarked) [‘31604]
- % 1H-CP-55,940 displacement (mean) from single point screen (CB1 (rCB1) [1]): 41.46%
- pKi [95% CI] (CB1 (rCB1) [2]): 6.1 [6.0 – 6.2]

Reference: paper PMC11882969 (Nature Communications, 2025)
